Test results as given in US20250353891A1 (MEDIMMUNE LIMITED, priority 2022, published 2025).
Where two headings read alike, the source gives them in different places. Starred links: 1 amine or outer side, 2 acyl side, 3 side chain; linkers in the order of their positions; H or OH if unused. Non-standard residues stand in square brackets, D forms with d. Residues, ends and D or L forms follow the SMILES beside them. Groups on a side chain read outwards from the residue. *: point of attachment. C20 diacid = O=C(O)CCCCCCCCCCCCCCCCCCC(=O)*; C18 diacid = O=C(O)CCCCCCCCCCCCCCCCC(=O)*; γGlu = O=C(O)[C@H](CCC(=O)[*:2])N[*:1]; αMeF = C[C@](N)(Cc1ccccc1)C(=O)O; AEEA = NCCOCCOCC(=O)O; Aib = CC(C)(N)C(=O)O

Assays:
[1] = biological target: human GLP-1 receptor (hGLP-1R) (Homo sapiens, UniProt P43220); assay: cAMP production (HTRF) in CHO cells expressing hGLP-1R; type: cell-based; parameters: expressed in transfected cells; details: for EC50: cAMP, CHO cells, 0.1% BSA, geometric mean, read-out: hGLP-1R EC50
human GLP-1 receptor (hGLP-1R), sequence (P43220 24-463): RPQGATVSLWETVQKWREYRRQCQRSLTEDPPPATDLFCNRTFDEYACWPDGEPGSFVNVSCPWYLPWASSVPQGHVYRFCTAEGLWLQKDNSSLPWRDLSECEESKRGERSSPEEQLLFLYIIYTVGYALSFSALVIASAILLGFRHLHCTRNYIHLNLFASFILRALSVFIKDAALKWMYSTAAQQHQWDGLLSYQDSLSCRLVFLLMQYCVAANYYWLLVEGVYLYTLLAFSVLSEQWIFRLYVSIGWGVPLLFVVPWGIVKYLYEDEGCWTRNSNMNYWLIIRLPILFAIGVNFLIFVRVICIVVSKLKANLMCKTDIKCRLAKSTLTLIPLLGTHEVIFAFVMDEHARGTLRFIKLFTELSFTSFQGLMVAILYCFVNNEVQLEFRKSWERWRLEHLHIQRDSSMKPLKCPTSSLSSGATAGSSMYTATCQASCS
Procedure, shortened: (§1)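 Cells were resuspended in assay buffer at batch-optimized density, typically 1×10^5 cells/mL for hGLP-1R and 2×10^5 cells/mL for hGCGR. After 30 min incubation at room temperature with compound, cAMP was measured by two-step HTRF. EC50 values came from 4-parameter logistic fits of % Delta F.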

[2] = biological target: human glucagon receptor (hGCGR) (Homo sapiens, UniProt P47871); assay: cAMP production (HTRF) in CHO cells expressing hGCGR; type: cell-based; parameters: expressed in transfected cells; details: cAMP, CHO cells, 0.1% BSA, geometric mean
human glucagon receptor (hGCGR), sequence (P47871 26-477): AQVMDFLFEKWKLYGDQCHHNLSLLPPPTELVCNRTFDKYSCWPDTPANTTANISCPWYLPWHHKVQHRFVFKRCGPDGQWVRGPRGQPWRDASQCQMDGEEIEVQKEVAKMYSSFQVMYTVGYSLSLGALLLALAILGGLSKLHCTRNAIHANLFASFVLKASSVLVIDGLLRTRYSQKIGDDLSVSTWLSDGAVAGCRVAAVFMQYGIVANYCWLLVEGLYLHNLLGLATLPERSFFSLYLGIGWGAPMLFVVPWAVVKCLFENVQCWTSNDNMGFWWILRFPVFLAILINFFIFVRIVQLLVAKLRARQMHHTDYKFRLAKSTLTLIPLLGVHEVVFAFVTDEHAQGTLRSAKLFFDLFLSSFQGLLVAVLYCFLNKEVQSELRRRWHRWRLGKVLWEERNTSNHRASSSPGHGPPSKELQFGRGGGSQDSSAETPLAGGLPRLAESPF
Procedure, shortened: as §1

[3] = % GLP-1R activity relative to GLP-1 / % GlucR activity relative to glucagon

Structure (SMILES): CC[C@H](C)[C@H](NC(=O)[C@H](Cc1c[nH]c2ccccc12)NC(=O)[C@H](CCCCNC(=O)COCCOCCNC(=O)COCCOCCNC(=O)CC[C@H](NC(=O)CCCCCCCCCCCCCCCCC(=O)O)C(=O)O)NC(=O)[C@@H](NC(=O)[C@H](Cc1ccccc1)NC(=O)[C@H](CC(=O)O)NC(=O)[C@H](CCC(N)=O)NC(=O)[C@H](C)NC(=O)[C@H](C)NC(=O)[C@H](CCCNC(=N)N)NC(=O)[C@H](CO)NC(=O)[C@H](CC(=O)O)NC(=O)[C@H](CC(C)C)NC(=O)[C@](C)(Cc1ccccc1)NC(=O)[C@H](CCCCN)NC(=O)[C@H](CO)NC(=O)[C@@H](NC(=O)[C@H](CC(=O)O)NC(=O)[C@H](CO)NC(=O)[C@@H](NC(=O)[C@](C)(Cc1ccccc1)NC(=O)[C@H](CO)NC(=O)CNC(=O)[C@@H](NC(=O)C(C)(C)NC(=O)[C@@H](N)Cc1c[nH]cn1)[C@@H](C)CC)[C@@H](C)O)C(C)C)C(C)C)C(=O)N[C@@H](C)C(=O)N[C@@H](CC(N)=O)C(=O)N[C@H](C(N)=O)[C@@H](C)O [Peptide 359] (H-H[Aib]IGS[αMeF]TSDVSK[αMeF]LDSRAAQDFVK([AEEA-AEEA-γGlu-C18 diacid])WIANT-NH2)
- % Relative Potency Ratio [1, 3]: 216.6
- EC50 [1]: 0.0461 nM
- EC50 ([2]; read-out: hGluc-R EC50): 5050 pM

Structure (SMILES): CC[C@H](C)[C@H](NC(=O)[C@H](Cc1c[nH]c2ccccc12)NC(=O)[C@H](CCCCNC(=O)COCCOCCNC(=O)COCCOCCNC(=O)CC[C@H](NC(=O)CCCCCCCCCCCCCCCCCCC(=O)O)C(=O)O)NC(=O)[C@@H](NC(=O)[C@H](Cc1ccccc1)NC(=O)[C@H](CC(=O)O)NC(=O)[C@H](CCC(N)=O)NC(=O)[C@H](C)NC(=O)[C@H](C)NC(=O)[C@H](CCCNC(=N)N)NC(=O)[C@H](CO)NC(=O)[C@H](CC(=O)O)NC(=O)[C@H](CC(C)C)NC(=O)[C@](C)(Cc1ccccc1)NC(=O)[C@H](CCCCN)NC(=O)[C@H](CO)NC(=O)[C@@H](NC(=O)[C@H](CC(=O)O)NC(=O)[C@H](CO)NC(=O)[C@@H](NC(=O)[C@](C)(Cc1ccccc1)NC(=O)[C@H](CO)NC(=O)CNC(=O)[C@@H](NC(=O)C(C)(C)NC(=O)[C@@H](N)Cc1c[nH]cn1)[C@@H](C)CC)[C@@H](C)O)C(C)C)C(C)C)C(=O)N[C@@H](C)C(=O)N[C@@H](CC(N)=O)C(=O)N[C@H](C(N)=O)[C@@H](C)O [Peptide 360] (H-H[Aib]IGS[αMeF]TSDVSK[αMeF]LDSRAAQDFVK([AEEA-AEEA-γGlu-C20 diacid])WIANT-NH2; N-terminus assumed)
- % Relative Potency Ratio [1, 3]: 103.5
- EC50 [1]: 0.108 nM
- EC50 ([2]; read-out: hGluc-R EC50): 5640 pM

Structure (SMILES): CC[C@H](C)[C@H](NC(=O)[C@H](Cc1c[nH]c2ccccc12)NC(=O)[C@H](CCCCNC(=O)COCCOCCNC(=O)COCCOCCNC(=O)CC[C@H](NC(=O)CC[C@H](NC(=O)CCCCCCCCCCCCCCCCC(=O)O)C(=O)O)C(=O)O)NC(=O)[C@@H](NC(=O)[C@H](Cc1ccccc1)NC(=O)[C@H](CC(=O)O)NC(=O)[C@H](CCC(N)=O)NC(=O)[C@H](C)NC(=O)[C@H](C)NC(=O)[C@H](CCCNC(=N)N)NC(=O)[C@H](CO)NC(=O)[C@H](CC(=O)O)NC(=O)[C@H](CC(C)C)NC(=O)[C@](C)(Cc1ccccc1)NC(=O)[C@H](CCCCN)NC(=O)[C@H](CO)NC(=O)[C@@H](NC(=O)[C@H](CC(=O)O)NC(=O)[C@H](CO)NC(=O)[C@@H](NC(=O)[C@](C)(Cc1ccccc1)NC(=O)[C@H](CO)NC(=O)CNC(=O)[C@H](Cc1c[nH]cn1)NC(=O)C(C)(C)NC(=O)[C@@H](N)Cc1c[nH]cn1)[C@@H](C)O)C(C)C)C(C)C)C(=O)N[C@@H](C)C(=O)N[C@@H](CC(N)=O)C(=O)N[C@H](C(N)=O)[C@@H](C)O [Peptide 362] (H-H[Aib]HGS[αMeF]TSDVSK[αMeF]LDSRAAQDFVK([AEEA-AEEA-γGlu-γGlu-C18 diacid])WIANT-NH2; N-terminus assumed)
- % Relative Potency Ratio [1, 3]: 1.5
- EC50 [1]: 0.0548 nM
- EC50 ([2]; read-out: hGluc-R EC50): 42.8 pM

Structure (SMILES): CC[C@H](C)[C@H](NC(=O)[C@H](Cc1c[nH]c2ccccc12)NC(=O)[C@H](CCCCNC(=O)COCCOCCNC(=O)COCCOCCNC(=O)CC[C@H](NC(=O)CC[C@H](NC(=O)CCCCCCCCCCCCCCCCC(=O)O)C(=O)O)C(=O)O)NC(=O)[C@@H](NC(=O)[C@H](Cc1ccccc1)NC(=O)[C@H](CC(=O)O)NC(=O)[C@H](CCC(N)=O)NC(=O)[C@H](C)NC(=O)[C@H](C)NC(=O)[C@H](CCCNC(=N)N)NC(=O)[C@H](CO)NC(=O)[C@H](CC(=O)O)NC(=O)[C@H](CC(C)C)NC(=O)[C@](C)(Cc1ccccc1)NC(=O)[C@H](CCCCN)NC(=O)[C@H](CO)NC(=O)[C@@H](NC(=O)[C@H](CC(=O)O)NC(=O)[C@H](CO)NC(=O)[C@@H](NC(=O)[C@](C)(Cc1ccccc1)NC(=O)[C@H](CO)NC(=O)CNC(=O)[C@H](Cc1c[nH]cn1)NC(=O)C(C)(C)NC(=O)[C@@H](N)Cc1c[nH]cn1)[C@@H](C)O)C(C)C)C(C)C)C(=O)N[C@@H](C)C(=O)N[C@@H](CC(N)=O)C(=O)N[C@H](C(=O)NCC(N)=O)[C@@H](C)O [Peptide 363] (H-H[Aib]HGS[αMeF]TSDVSK[αMeF]LDSRAAQDFVK([AEEA-AEEA-γGlu-γGlu-C18 diacid])WIANTG-NH2; N-terminus assumed)
- % Relative Potency Ratio [1, 3]: 5.1
- EC50 [1]: 0.0183 nM
- EC50 ([2]; read-out: hGluc-R EC50): 47.5 pM

Structure (SMILES): CC[C@H](C)[C@H](NC(=O)[C@H](Cc1c[nH]c2ccccc12)NC(=O)[C@H](CCCCNC(=O)COCCOCCNC(=O)COCCOCCNC(=O)CC[C@H](NC(=O)CCCCCCCCCCCCCCCCC(=O)O)C(=O)O)NC(=O)[C@@H](NC(=O)[C@H](Cc1ccccc1)NC(=O)[C@H](CC(=O)O)NC(=O)[C@H](CCC(N)=O)NC(=O)[C@H](C)NC(=O)C(C)(C)NC(=O)[C@H](CCCNC(=N)N)NC(=O)[C@H](CO)NC(=O)[C@H](CC(=O)O)NC(=O)[C@H](CC(C)C)NC(=O)[C@](C)(Cc1ccccc1)NC(=O)[C@H](CCCCN)NC(=O)[C@H](CO)NC(=O)[C@@H](NC(=O)[C@H](CC(=O)O)NC(=O)[C@H](CO)NC(=O)[C@@H](NC(=O)[C@](C)(Cc1ccccc1)NC(=O)[C@H](CO)NC(=O)CNC(=O)[C@H](Cc1c[nH]cn1)NC(=O)C(C)(C)NC(=O)[C@@H](N)Cc1c[nH]cn1)[C@@H](C)O)C(C)C)C(C)C)C(=O)N[C@@H](C)C(=O)N[C@@H](CC(N)=O)C(=O)N[C@H](C(N)=O)[C@@H](C)O [Peptide 365, H(Aib)HGS(αMePhe)TSDVSK(αMePhe)LDSR(Aib)AQDFVK(O2Oc-O2Oc-γE-C18diacid)24WIANT-amide] (H-H[Aib]HGS[αMeF]TSDVSK[αMeF]LDSR[Aib]AQDFVK([AEEA-AEEA-γGlu-C18 diacid])WIANT-NH2; N-terminus assumed)
- % Relative Potency Ratio [1]: 0.3
- EC50 [1]: 0.0513 nM
- EC50 ([2]; hGluc-R EC50 (pM)): 8.77 pM
